Assay results: US10202361B2, “Pyridazinones as herbicides” (E I DU PONT DE NEMOURS AND COMPANY, priority 2014, dated 2019)
Where two headings read alike, the source gives them in different places.

Legend:
Assay type in all cases: in vivo
[1] = test system: barnyardgrass (Echinochloa crus-galli); assay: Test B flooded paddy test; conditions: Echinochloa crus-galli, 312 h; Flood, 125 g ai/ha; scale of 0 to 100, 0 is no effect, 100 is complete control; 13 to 15 d; read-out: Plant response rating, Barnyardgrass
Procedure, shortened: (§1)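 Visual scores from 0 (no effect) to 100 (complete control) are relative to controls, assessed 13 to 15 d after treatment under greenhouse conditions. Treatment went into the paddy water of pots flooded 3 cm deep, with seedlings at the 2-leaf stage and flooding maintained.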

[2] = test system: rice (Oryza sativa); assay: Test B flooded paddy test; conditions: Oryza sativa, 312 h; Flood, 125 g ai/ha; scale of 0 to 100, 0 is no effect, 100 is complete control; 13 to 15 d; read-out: Plant response rating, Rice
Procedure, shortened: as §1

[3] = test system: ducksalad (Heteranthera limosa); assay: Test B flooded paddy test; conditions: Heteranthera limosa, 312 h; Flood, 125 g ai/ha; scale of 0 to 100, 0 is no effect, 100 is complete control; 13 to 15 d; read-out: Plant response rating, Ducksalad
Procedure, shortened: as §1

[4] = test system: sedge, umbrella (small-flower umbrella sedge, Cyperus difformis); assay: Test B flooded paddy test; conditions: Cyperus difformis, 312 h; Flood, 125 g ai/ha; scale of 0 to 100, 0 is no effect, 100 is complete control; 13 to 15 d; read-out: Plant response rating, Sedge, Umbrella
Procedure, shortened: as §1

[5] = test system: barnyardgrass (Echinochloa crus-galli); assay: Test A pre-/postemergence greenhouse herbicide test; conditions: Echinochloa crus-galli, 240 h, 0 to 100 scale (0 no effect, 100 complete control), approx. 10 d, read-out: Plant response rating, Barnyardgrass; for pest or weed control at 125 g/ha: 125 g ai/ha; for pest or weed control at 500 g/ha: 500 g ai/ha
Procedure, shortened: (§2)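 Injury was scored visually on a 0 to 100 scale, where 0 meant no effect and 100 complete control, relative to untreated plants after about 10 d in the greenhouse. Preemergence treatment was a directed soil spray on seeded loam–sand; postemergence spray went onto one- to two-leaf plants.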

[6] = test system: wheat (Triticum aestivum); assay: as above; conditions: Triticum aestivum, 240 h, 0 to 100 scale (0 no effect, 100 complete control), approx. 10 d, read-out: Plant response rating, Wheat; for plant injury at 125 g/ha: 125 g ai/ha; for plant injury at 500 g/ha: 500 g ai/ha
Procedure, shortened: as §2

[7] = test system: pigweed (Amaranthus retroflexus); assay: as above; conditions: Amaranthus retroflexus, 240 h, 0 to 100 scale (0 no effect, 100 complete control), approx. 10 d, read-out: Plant response rating, Pigweed; for pest or weed control at 125 g/ha: 125 g ai/ha; for pest or weed control at 500 g/ha: 500 g ai/ha
Procedure, shortened: as §2

[8] = test system: velvetleaf (Abutilon theophrasti); assay: as above; conditions: Abutilon theophrasti, 240 h, 0 to 100 scale (0 no effect, 100 complete control), approx. 10 d, read-out: Plant response rating, Velvetleaf; for pest or weed control at 125 g/ha: 125 g ai/ha; for pest or weed control at 500 g/ha: 500 g ai/ha
Procedure, shortened: as §2

[9] = test system: crabgrass, Large (large crabgrass, Digitaria sanguinalis); assay: as above; conditions: Digitaria sanguinalis, 240 h, 0 to 100 scale (0 no effect, 100 complete control), approx. 10 d, read-out: Plant response rating, Crabgrass, Large; for pest or weed control at 125 g/ha: 125 g ai/ha; for pest or weed control at 500 g/ha: 500 g ai/ha
Procedure, shortened: as §2

[10] = test system: foxtail, giant (giant foxtail, Setaria faberii); assay: as above; conditions: Setaria faberi, 240 h, 0 to 100 scale (0 no effect, 100 complete control), approx. 10 d, read-out: Plant response rating, Foxtail, Giant; for pest or weed control at 125 g/ha: 125 g ai/ha; for pest or weed control at 500 g/ha: 500 g ai/ha
Procedure, shortened: as §2

[11] = test system: corn (Zea mays); assay: as above; conditions: Zea mays, 240 h, 0 to 100 scale (0 no effect, 100 complete control), approx. 10 d; for Corn plant response rating (crop injury, 0 = no effect, 100 = complete kill) at 125 g/ha: 125 g ai/ha; for Corn plant response rating (crop injury, 0 = no effect, 100 = complete kill) at 500 g/ha: 500 g ai/ha
Procedure, shortened: as §2

Row | SMILES | pest or weed control at 125 g/ha [1] | plant injury at 125 g/ha [2] | pest or weed control at 125 g/ha [3] | pest or weed control at 125 g/ha [4] | pest or weed control at 125 g/ha ([5]; post-emergence, Postemergence) | pest or weed control at 500 g/ha ([5]; post-emergence, Postemergence) | pest or weed control at 125 g/ha ([5]; pre-emergence, Preemergence) | pest or weed control at 500 g/ha ([5]; pre-emergence, Preemergence) | plant injury at 125 g/ha ([6]; post-emergence, Postemergence) | plant injury at 500 g/ha ([6]; post-emergence, Postemergence) | plant injury at 125 g/ha ([6]; pre-emergence, Preemergence) | plant injury at 500 g/ha ([6]; pre-emergence, Preemergence) | pest or weed control at 125 g/ha ([7]; post-emergence, Postemergence) | pest or weed control at 500 g/ha ([7]; post-emergence, Postemergence) | pest or weed control at 125 g/ha ([7]; pre-emergence, Preemergence) | pest or weed control at 500 g/ha ([7]; pre-emergence, Preemergence) | pest or weed control at 125 g/ha ([8]; post-emergence, Postemergence) | pest or weed control at 500 g/ha ([8]; post-emergence, Postemergence) | pest or weed control at 125 g/ha ([8]; pre-emergence, Preemergence) | pest or weed control at 500 g/ha ([8]; pre-emergence, Preemergence) | other results
1 | Cc1cc(=O)n(-c2ccc(F)cc2)nc1Cc1ccnc(C(F)(F)F)c1 [Compound 1, 2-(4-fluorophenyl)-5-methyl-6-[[2-(trifluoromethyl)-4-pyridinyl]methyl]-3(2H)-pyridazinone] | 10% | 20% | 60% | 80% | 100% | 100% | 100% | 100% | 60% | 90% | 0% | 90% | 100% | 100% | 100% | 100% | 40% | 100% | 0% | 90% | pest or weed control at 125 g/ha ([9]; post-emergence, Postemergence): 90%; pest or weed control at 500 g/ha ([9]; post-emergence, Postemergence): 100%; pest or weed control at 125 g/ha ([9]; pre-emergence, Preemergence): 100%; pest or weed control at 500 g/ha ([9]; pre-emergence, Preemergence): 100%; pest or weed control at 125 g/ha ([10]; post-emergence, Postemergence): 90%; pest or weed control at 500 g/ha ([10]; post-emergence, Postemergence): 100%; pest or weed control at 125 g/ha ([10]; pre-emergence, Preemergence): 100%; pest or weed control at 500 g/ha ([10]; pre-emergence, Preemergence): 100%; Corn plant response rating (crop injury, 0 = no effect, 100 = complete kill) at 125 g/ha ([11]; post-emergence, Postemergence): 90%; Corn plant response rating (crop injury, 0 = no effect, 100 = complete kill) at 500 g/ha ([11]; post-emergence, Postemergence): 90%; Corn plant response rating (crop injury, 0 = no effect, 100 = complete kill) at 125 g/ha ([11]; pre-emergence, Preemergence): 0%; Corn plant response rating (crop injury, 0 = no effect, 100 = complete kill) at 500 g/ha ([11]; pre-emergence, Preemergence): 90%
2 | Cc1cc(=O)n(-c2ccc(C(F)(F)F)cc2)nc1Cc1ccnc(C(F)(F)F)c1 [Compound 2, 5-methyl-2-[4-(trifluoromethyl)phenyl]-6-[[2-(trifluoromethyl)-4-pyridinyl]methyl]-3(2H)-pyridazinone] | 0% | 0% | 10% | 80% | 80% | 90% | 80% | 100% | 40% | 80% | 0% | 40% | 90% | 100% | 100% | 100% | 50% | 100% | 20% | 50% | pest or weed control at 125 g/ha ([9]; post-emergence, Postemergence): 80%; pest or weed control at 500 g/ha ([9]; post-emergence, Postemergence): 100%; pest or weed control at 125 g/ha ([9]; pre-emergence, Preemergence): 100%; pest or weed control at 500 g/ha ([9]; pre-emergence, Preemergence): 100%; pest or weed control at 125 g/ha ([10]; post-emergence, Postemergence): 80%; pest or weed control at 500 g/ha ([10]; post-emergence, Postemergence): 100%; pest or weed control at 125 g/ha ([10]; pre-emergence, Preemergence): 100%; pest or weed control at 500 g/ha ([10]; pre-emergence, Preemergence): 100%; Corn plant response rating (crop injury, 0 = no effect, 100 = complete kill) at 125 g/ha ([11]; post-emergence, Postemergence): 70%; Corn plant response rating (crop injury, 0 = no effect, 100 = complete kill) at 500 g/ha ([11]; post-emergence, Postemergence): 90%; Corn plant response rating (crop injury, 0 = no effect, 100 = complete kill) at 125 g/ha ([11]; pre-emergence, Preemergence): 30%; Corn plant response rating (crop injury, 0 = no effect, 100 = complete kill) at 500 g/ha ([11]; pre-emergence, Preemergence): 50%
